The target of assay [1] is T1, UBE2T/FANCLRING (ubiquitylation of GST-FANCLRING) (Homo sapiens, UniProt Q9NW38).
T1 sequence (Q9NW38 275-375 limits assumed): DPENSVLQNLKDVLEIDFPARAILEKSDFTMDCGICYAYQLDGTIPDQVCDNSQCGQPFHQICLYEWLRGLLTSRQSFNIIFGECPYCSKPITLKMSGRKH
In words: biochemical. Particulars: for LE: ligand efficiency = 1.4(–logIC50)/HAC; for inhibition at 20 µM: read-out: Primary screen % Inhibition (20 M). From the text: To identify small-molecule inhibitors of the FA pathway, we developed a high-throughput screen (HTS) compatible assay based on the FA ubiquitylation cascade (see Figure 1a, as well as Figure S1 in the Supporting Information). Given the complexity of the full FA ubiquitylation cascade, we constructed a simplified ubiquitylation reaction that would be robust for HTS purposes yet still provide many relevant protein species for small molecules to interact with. The recombinant protein assay developed used homogeneous time-resolved fluorescence (HTRF) and contained Cy5-labeled ubiquitin, the E1 enzyme UBE1, the E2 enzyme UBE2T, and the RING domain (residues 275–375) of the E3 FANCL (FANCLRING). FANCLRING was used as a surrogate substrate for ubiquitylation in the absence of the FA core and FANCD2/FANCI complexes.
Figure 1 Screening for inhibitors of the FA pathway. (a) Schematic of the HTRF ubiquitylation assay. Ubiquitylation of GST-tagged E3 (FANCLRING) by the E2 (UBE2T) places Cy5-labeled ubiquitin in close proximity to the anti-GST Tb cryptate. Excitation of the Tb cryptate donor results in FRET to the Cy5 acceptor. Simultaneous monitoring of the donor emission (620 nm) and acceptor emission (665 nm) allows for determination of the 665/620 ratio. (b) HTRF screen results showing average inhibition (n = 2) produced by compounds at 20 μM (in-house diversity library; 10 111 compounds) and 10 μM (Selleckchem epigenetic library; 119 compounds). Numbers given in parentheses represent the number of compounds per inhibition threshold.
Purified protein was concentrated using a Vivaspin-6 concentrator with a 10 kDa MW cut-off (Vivascience) and flash-frozen in small aliquots for storage at […]
Cy5 labelling of ubiquitin. To a 5 mg/mL solution of recombinant human ubiquitin (Boston Biochem) in 0.1 M NaHCO3 pH 8.3, was added a 4-fold molar excess of Cyanine5 NHS ester (Lumiprobe). The reaction was incubated at 23 °C for 4 hours in the dark. The protein was separated from unreacted dye by passage through a PD-10 desalting column (GE Healthcare) equilibrated with PBS. Purified protein was concentrated using a Vivaspin-6 concentrator with a 3 kDa MW cut-off (Vivascience) and flash-frozen in small aliquots for storage […]
Homogeneous Time-Resolved Fluorescence (HTRF) Assay. GST-FANCLRING (200 nM) was incubated with anti-GST Tb (CisBio, #61GSTTL) (2.5 ng final) at room temperature for 30 minutes in assay buffer (50 mM Tris-HCl pH 8.0, 1 mM TCEP, 5 mM MgCl2, 0.005% Tween-20). Meanwhile, 10 μL of UBE2T in assay buffer (or assay buffer alone for no enzyme controls) was incubated in a white 384-well plate (Corning) with 20 nL DMSO or compound in DMSO. After 30 minutes, the GST-RINGRING solution was added to an equal volume solution containing His-UBE1 (Boston Biochem) (16 nM), Cy5-ubiquitin (400 nM), ATP (0.8 mM) in assay buffer. 10 μL of this solution was immediately added to each well of the 384 -well plate containing UBE2T or buffer. F inal concentrations: His -UBE1 (4 nM), UBE2T (6 nM), GST -RINGRING (50 nM), Cy5-ubiquitin (100 nM), ATP (0.2 mM), compound (10 or 20 μM) in 0.1 %
(v/v) DMSO. After a 10 minute incubation at 23 °C, 5 µL of a 50 mM EDTA solution were added to each well to stop the reaction. Signal was measured at λEx 340 nm and λEm 665 nm and 620 nm using a PHERAstar FS plate reader
(BMG Labtech). A ratio was calculated as [λEm(665)/λEm(620)] × 104 for each well and this was used to determine the percent inhibition for test compounds.
Gel-based ubiquitylation assays. Assays were carried out in a total volume of 10 µL containing 20 nM His6-UBE1 (Boston Biochem), 50 nM UBE2T, 250 nM GST-E3 and 500 nM biotinylated ubiquitin (Boston Biochem) in buffer (50

Assay [2] relates to FANCD2 foci and γH2AX in U2OS cells. Description: High-throughput high content indirect immunofluorescence (FANCD2 foci, γH2AX). In kind it is cell-based. The following applies: CU2 500 μM, HU 2.5 mM 8 h, cisplatin 10 μM 8 h; for H2AX positive nuclei, Experiment 1 / H2AX positive nuclei, Experiment 2 / H2AX positive nuclei, Experiment 3: CU1 200 μM, raw data; for H2AX positive nuclei, Totals: sum of experiments 1-3, CU1 200 μM. On the procedure:
In response to DNA damage, mUb-FANCD2 accumulates at sites of DNA lesions to form foci, promote DNA-damage sensing, activate cell-cycle checkpoints, and promote DNA repair.[23] Therefore, we employed high-throughput high-content indirect immunofluorescence studies to examine the effect of CU1 and CU2 on mUb-FANCD2 focus formation. The experimental format used was similar to the immunoblot-based experiments, excepting that, following treatment with HU (2.5 mM for 8 h) or cisplatin (10 μM for 8 h), cells were fixed, permeabilized and stained with specific FANCD2 primary and fluorescent secondary antibodies. In addition to monitoring mUb-FANCD2 foci, γH2AX was evaluated as a marker of DNA damage induction, and cell nuclei were visualized by 4′,6-diamidino-2-phenylindole (DAPI) staining. […] These observations are in accord with the immunoblot-based experiments wherein reductions in mUb-FANCD2 were observed (Figure 3a).
Figure 4 Further cell-based assays with CU1 and CU2: (a, b) Representative immunofluorescence images of U2OS cells treated with HU (2.5 mM, 8 h) or cisplatin (10 μM, 8 h) in the presence or absence of CU1 (200 μM) or CU2 (500 μM). (c) Quantification of the number of FANCD2 foci in cells treated as in panels (a) and (b). Data accumulated over three independent experiments, each consisting of three technical replicas. (d) IncuCyte analysis of U2OS cells treated with or without carboplatin (15 μM) and CU2 (250 μM). Mean calculated from three wells, four images per well. (HU = DMSO + HU, cisplatin = DMSO + cisplatin). […]
buffer (1 hour at room temperature) followed by three washes with PBST. Cells were then counterstained with DAPI (25 µg/mL) and mounted using Vectashield […]
High-throughput high content indirect immunofluorescence. U2OS cells, seeded in a 96-well plate, were treated with compound for 1 hour followed by 2.5 mM HU or 10 µM cisplatin for 8 hours. Cells were washed 3 times with wash buffer (1xPBS, 0.1% Tween-20) before being fixed in 2% paraformaldehyde (w/v) for 20 minutes at 23 °C. The cells were then washed a further 3 times in wash buffer before being stored overnight at 4°C in the final wash. Next day, the cells were permeabilized using 1xPBS, 0.5% Triton X-100 for 15 minutes at 23 °C and then washed 3 times with wash buffer before blocking with 5% BSA in 1xPBS, 0.1% Tween-20 for 30 minutes at 23 °C. After washing 3 times with wash buffer, the cells were incubated for 1 hour at 23 °C in the presence of primary antibodies (1:50 FANCD2, Santa Cruz, mouse monoclonal and 1:250 γH2AX, Cell Signalling, rabbit) in 5% BSA in wash buffer. After incubation in the presence of primary antibodies, the cells were washed 3 times with wash buffer before being incubated with secondary antibodies in 5% BSA in wash buffer for 1 hour in the dark at 23 °C. The secondary antibodies used were goat anti-mouse AlexaFluor 488 and goat anti-rabbit AlexaFluor 594 (both from Molecular Probes, Invitrogen). The cells were then washed a further 3 times with wash buffer before being stained in the presence of 2 µg/ml DAPI (Sigma D9542) in wash buffer for 10 minutes in the dark at 23 °C. After DAPI staining, the cells were washed 3 more times with wash buffer and stored in the final wash until ready for imaging.
A spinning-disk Opera PhenixTM (Perkin Elmer) microscope equipped with a 40x water immersion objective was employed to acquire 10 confocal images for each well in a single optimized focal plane comprising three fluorescence channels: 405, 488 and 568 nm for DAPI, Alexa Fluor 488 and Alexa Fluor 594, respectively. Image analysis and evaluation was done using Harmony High-Content Imaging and Analysis software. DAPI staining (405 nm) was used to segment nuclei, which were further gated for the presence of γH2AX staining

The test system of the next assay is U2OS cells. In words: IncuCyte cell proliferation assay. Particulars: 15 μM carboplatin in DMSO-treated cells. In kind it is cell-based. On the procedure:
Figure 4 Further cell-based assays with CU1 and CU2: (a, b) Representative immunofluorescence images of U2OS cells treated with HU (2.5 mM, 8 h) or cisplatin (10 μM, 8 h) in the presence or absence of CU1 (200 μM) or CU2 (500 μM). (c) Quantification of the number of FANCD2 foci in cells treated as in panels (a) and (b). Data accumulated over three independent experiments, each consisting of three technical replicas. (d) IncuCyte analysis of U2OS cells treated with or without carboplatin (15 μM) and CU2 (250 μM). Mean calculated from three wells, four images per well. (HU = DMSO + HU, cisplatin = DMSO + cisplatin).
Finally, to investigate if CU1 and CU2 could sensitize cells to a more clinically relevant chemotherapeutic agent, quantitative live cell analyses were performed using the IncuCyte platform. As the FA pathway is involved in the repair of ICLs, cells were treated with the ICL-inducing chemotherapeutic drug, carboplatin. For this experiment, U2OS cells were seeded at a relatively low (<10%) density and preincubated with CU1 or CU2 for 1 h. Carboplatin was then added to the cells and images were taken every 6 h for 8 days in order to monitor growth and proliferation of the cells.
Reaction mixtures were incubated for the indicated time at 37 °C and stopped by the addition of 2X reducing SDS -PAGE sample buffer, separated on NuPAGE Novex 4 –12% Bis/Tris gradient gels (Invitrogen) and visualized by Western blotting using the indicated antibodies (Table S3).
Cell culture. U2OS cells were cultured at 37 °C in a humidified atmosphere and 5% (v/v) CO2 in Dulbecco's Modified Eagle Medium (DMEM; Sigma-Aldrich) supplemented with 10% (v/v) fetal bovine serum (FBS), 100 units/ml of penicillin, […] of streptomycin and 292 μg/mL L-glutamine.
Cell extract preparation and immunoblotting. U2OS cells were lysed in buffer containing 50 mM Tris-HCl pH 7.5, 2% SDS, 10 mM NEM, cocktail protease inhibitor (Roche) and phosphatase inhibitor cocktail followed by sonication 100 µg of extracts were boiled for 5 mins at 95 °C in 5X loading buffer and loaded onto NuPAGE Novex 4–12% Bis/Tris gradient gels
(Invitrogen), or NuPAGE Novex 3-8% Tris/Acetate gradient gels (Invitrogen) for detection of mUb-FANCD2. After separation the gels were transferred to PVDF and the membranes were blocked with Tris-buffered saline containing 0.1% (v/v) Tween-20 (TBST) and 5% (v/v) bovine serum albumin (BSA) and incubated with the indicated primary and secondary antibodies. mUb-FANCD2 intensity was quantified using Image Studio (LI-COR).
IncuCyte cell proliferation assays. 2000 U2OS cells were seeded per well in 96-well plates and treated with compounds 24 hours afterwards. After 1 hour of compound treatment, 15 µM carboplatin (Sigma-Aldrich) was added and the cells were cultured in an incubator with an IncuCyte microscopy -platform (Essen BioScience). Phase -contrast images were acquired every 6 hours for 8 days until DMSO-carboplatin treated cells reached >80% confluence. Cell proliferation was monitored as the occupied area (% confluence) of cell images over time and calculated as percentage confluence over time. Cell confluency percentages were calculated using the integrated Cell Player software and results were analysed with Prism 6 (GraphPad Software).

Setting [3] is: library stock, 10-point dose-response, read-out: Primary screen IC50.
The mark [4] stands for this setting: printed beside the structures in Figure S3, read-out: IC50 (Figure S3).

SMILES strings stand for the structures. Like-named read-outs stand apart in the source and are kept apart here. Some results are limits rather than exact numbers.

The values that follow come from article PMC6804243, “Small-Molecule Inhibition of UBE2T/FANCL-Mediated Ubiquitylation in the Fanconi Anemia Pathway” (ACS Chemical Biology, 2019).

One may read the IC50 as the point on the concentration scale where inhibition reaches its midpoint. Broadly, the inhibition is the drop in the measured response relative to a control, in per cent.

For `COc1ccc(CNC(=O)c2ccc(-n3nccc3C)cc2)cc1C(=O)O` [CU3], in assay [1] (setting [3]), the 50% inhibitory concentration (IC50) amounted to 51.8 µM. In assay [1], the LE came out at 0.22 and the inhibition at 20 µM came to 20.3%. Moreover, the IC50 in assay [1] (setting [4]) was 49.8 µM.

Consider `Cc1cc(C(=O)O)cc(S(=O)(=O)Nc2ccccc2-n2cccn2)c1C` [CU4], for which, in assay [1] (setting [3]), the half-inhibitory concentration (IC50) is 61 µM. Moreover, in assay [1], the LE was determined as 0.22 and the inhibition at 20 µM was found to be 20.7%. In addition, the half-maximal inhibitory concentration (IC50) in assay [1] (setting [4]) was found to be 82.5 µM.

In the case of `O=C(c1ccc2n[nH]nc2c1)N1CCC(COc2ccccc2)CC1` [CU6], the concentration for half-maximal inhibition (IC50) in assay [1] (setting [3]) was found to be 30.8 µM. Moreover, in assay [1], the LE is reported as 0.26 and the inhibition at 20 µM is 37%. In addition, the IC50 in assay [1] (setting [4]) came to 25.8 µM.

As for `Cc1nc2ccccc2n1CCNS(=O)(=O)c1ccc2c(c1)CC(=O)N2` [CU7], in assay [1] (setting [3]), the IC50 was found to be 64.2 µM. Moreover, in assay [1], the LE is on record as 0.24 and the inhibition at 20 µM is 39.6%. Moreover, the 50% inhibitory concentration (IC50) in assay [1] (setting [4]) was determined as 35.3 µM.

With `Cn1ncc(C#N)c1NC(=O)Cc1coc2cc3c(cc12)CCC3` [CU8], the results for the IC50 in assay [1] (setting [3]) and in assay [1] (setting [4]) were 33.7 µM and 73.2 µM, respectively. This molecule had an LE in assay [1] of 0.24. Besides, the inhibition at 20 µM in assay [1] worked out at 34%.

For `NC(=O)NO` [HU, Hydroxyurea, reference compound], in assay [2], the “H2AX positive nuclei, Experiment 1” value turned out to be 390; the “H2AX positive nuclei, Experiment 2” value is 672; the “H2AX positive nuclei, Experiment 3” value worked out at 708; the “H2AX positive nuclei, Totals” value is recorded as 1770.

As for `N.N.O=C([O-])C1(C(=O)[O-])CCC1.[Pt+2]` [carboplatin, reference compound], the proliferation rate entry in the assay with U2OS cells is reported as “clear reduction in proliferation rate”. In the assay with U2OS cells (after 8 days), this molecule returned a confluency of less than 100%.

Turning to `N.N.[Cl][Pt][Cl]` [cisplatin, reference compound], in assay [2], the “H2AX positive nuclei, Experiment 1” value came to 915; the “H2AX positive nuclei, Experiment 2” value was 1122; the “H2AX positive nuclei, Experiment 3” value is on record as 1056; the “H2AX positive nuclei, Totals” value is recorded as 3093.
